Measured values: patent US9890176B2, “Mannose derivatives for treating bacterial infections” (Vertex Pharmaceuticals Incorporated, priority 2013, dated 2018)

What was measured:
[1] = Mouse Excretion Study Following FimH Antagonist Oral Dosing; format: in vivo; conditions: 10 mg/kg orally, collection up to 72 h
Protocol: Mice are dosed 10 mg/kg orally (10 mL/kg; 0.5% methocel) with FimH antagonists and urine and feces are collected on ice up to 72 h in excretion cages. Post-collection, feces samples are diluted with 10 volumes of water and homogenized using a Stomacher device. Feces mixture and urine samples are then quenched with acetonitrile containing an internal standard, centrifuged, and the supernatants are then diluted with 1 volume of water prior to analysis by HPLC-MS/MS in SRM mode.

[2] = Human Feces Stability Assay; format: in vitro ADME; conditions: 100 uM in human feces supernatant (3 donors), pH 6.5, 37° C.
Protocol: The human feces stability assay ca be used to measure the stability of FimH antagonists in an environment that mimics the gut. Fresh human feces samples from 3 donors are homogenized with 10 volumes (w/v) of 100 mM potassium phosphate buffer (pH 6.5) using a Stomacher device. The feces mixture is then centrifuged 5 min at 2000 g and supernatant is collected for incubations. Compounds to be tested are spiked at 100 uM in feces supernatant and incubated at 37° C. up to 24 hours. The enzymatic reaction is stopped by adding 9 volumes of acetonitrile containing 0.1% formic acid and internal standard. The mixture is centrifuged and the supernatants are analysed by HPLC-MS/MS to assess percentage of parent remaining relative to a control sample.

[3] = Mouse Feces Stability Assay; format: in vitro ADME; conditions: 100 uM in mouse feces supernatant, pH 6.5, 37° C.
Protocol: The mouse feces stability assay can be used to measure the stability of FimH antagonists in an environment that mimics the gut. Fresh mouse feces samples from a number of animals (at least 4) are homogenized with 10 volumes (w/v) of 100 mM potassium phosphate buffer (pH 6.5) using a Stomacher device. The feces mixture is then centrifuged 5 min at 2000 g and the supernatant is collected for incubation. Compounds to be tested are spiked at 100 uM in the feces supernatant and incubated at 37° C. up to 6 hours. The enzymatic reaction is stopped by adding 9 volumes of acetonitrile containing 0.1% formic acid and an internal standard. The mixture is centrifuged and the supernatants are analyzed by HPLC-MS/MS to assess percentage of parent remaining relative to a control sample.

[4] = target: T1, carbohydrate recognition domain of the protein FimH (M1-T179) (Escherichia coli, UniProt P08191); assay: Thermal Shift Assay; format: binding, E. coli; conditions: 5.6 μM protein, 56 μM ligand; DMSO control as reference; ± standard error of the mean (number of repeats)
T1 construct: domain of the protein FimH (M1-T179) with an uncleavable C-terminus 6-His tag; made in house; host or cells: E. coli (pET21b plasmid)
Protocol: The carbohydrate recognition domain of the protein FimH (M1-T179) with an uncleavable C-terminus 6-His tag is cloned in a pET21b plasmid and expressed in E. coli and purified to homogeneity. The thermal stabilization of the protein upon ligand binding is measured in a 96-well format on a ViiA™ 7 (Life Technologies, Carlsbad, Calif.) RT-PCR instrument. The assay is conducted in duplicate in 20 mM Tris pH 7.4 and 150 mM NaCl at a final concentration of 5.6 μM and 56 μM for protein and ligand, respectively. An environmentally-sensitive dye (Applied Biosystems Protein Thermal Shift™ Dye (P/N 4461141)) is added to each well to a final ratio of 1:1000. Plates are spun at 1000×g for 1 minute and incubated at room temperature for 10 minutes. Thermal stability of protein with and without ligand is measured from 45° C. to 85° C. at a scan rate of 0.05° C./sec. The resulting data is analyzed using Protein Thermal Shift™ Software (version 1.1) with DMSO control used as reference.

[5] = system: bacterial strain LF82 binding to the glycoprotein BSA-(Mannose)3; assay: Bacterial Binding Assay (BBA); format: cell-based, Escherichia coli; conditions: read-out: Bacterial Binding Assay IC50
Outline: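 Luciferase-tagged E. coli LF82 grown overnight at 37° C without shaking, then added at 2×10^8 bacteria/mL (10^7 per well) to wells coated with 0.5-2 μg/mL BSA-(Man)3 and blocked with 2% BSA. Compound in 0.2% BSA/D-PBS; binding 40-75 min at room temperature. Washed; bound bacteria read by luciferase luminescence; IC50.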

T1 sequence (P08191 22-179 limits assumed): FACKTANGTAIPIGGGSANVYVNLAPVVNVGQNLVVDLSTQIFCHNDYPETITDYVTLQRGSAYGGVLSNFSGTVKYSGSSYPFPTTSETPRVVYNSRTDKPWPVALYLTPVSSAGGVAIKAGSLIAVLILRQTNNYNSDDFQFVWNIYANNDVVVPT

SMILES	Delta Thermal melt [4]	IC50 [5] [nM]	other results
CNC(=O)c1cccc(-c2ccc(O[C@H]3O[C@H](CO)[C@@H](O)[C@H](O)[C@@H]3O)c(C)c2)c1 [A]	–	–	% Oral dose recovered intact in mice feces [1]: 8.4%; % Oral dose recovered intact in mice urine [1]: 0.20%; In vitro human feces stability - % Parent remaining at 24 h [2]: 35%; In vitro mice feces stability - % Parent remaining at 6 h [3]: 0%
COc1cc(Br)ccc1O[C@H]1O[C@H](CO)[C@@H](O)[C@H](O)[C@@H]1F [Example 5, (2R,3S,4S,5S,6R)-6-(4-bromo-2-methoxy-phenoxy)-5-fluoro-2-(hydroxymethyl)tetrahydropyran-3,4-diol]	1.8 (1) ° C.	–	–
CNC(=O)c1cccc(-c2ccc(O[C@H]3O[C@H](CO)[C@@H](O)[C@H](O)[C@@H]3F)c(C(F)(F)F)c2)c1 [Example 4, 3-[4-[(2R,3S,4S,5S,6R)-3-fluoro-4,5-dihydroxy-6-(hydroxymethyl)tetrahydropyran-2-yl]oxy-3-(trifluoromethyl)phenyl]-N-methyl-benzamide]	5.6 (1) ° C.	470 ± 32	In vitro mice feces stability - % Parent remaining at 6 h [3]: 108%
CNC(=O)c1cccc(-c2ccc(O[C@H]3O[C@H](CF)[C@@H](O)[C@H](O)[C@@H]3O)cc2)c1 [Example 12, 4′-(((2R,3S,4S,5S,6S)-6-(fluoromethyl)-3,4,5-trihydroxytetrahydro-2H-pyran-2-yl)oxy)-N-methyl-[1,1′-biphenyl]-3-carboxamide]	0.06 ± 0.11 (2) ° C.	–	In vitro mice feces stability - % Parent remaining at 6 h [3]: 118%
CNC(=O)c1cccc(-c2ccc(O[C@H]3O[C@H](CO)[C@@H](O)[C@H](O)[C@@H]3F)c(C)c2)c1 [Example 6, 3-[4-[(2R,3S,4S,5S,6R)-3-fluoro-4,5-dihydroxy-6-(hydroxymethyl)tetrahydropyran-2-yl]oxy-3-methyl-phenyl]-N-methyl-benzamide]	4.905 ± 0.195 (2) ° C.	750 ± 141	In vitro mice feces stability - % Parent remaining at 6 h [3]: 108%
Cc1cc(Br)ccc1O[C@H]1O[C@H](CO)[C@@H](O)[C@H](O)[C@@H]1F [Example 1, (2R,3S,4S,5S,6R)-6-(4-bromo-2-methyl-phenoxy)-5-fluoro-2-(hydroxymethyl)tetrahydropyran-3,4-diol]	3 (1) ° C.	–	–
OC[C@H]1O[C@H](Oc2ccc(Br)cc2C(F)(F)F)[C@@H](F)[C@@H](O)[C@@H]1O [Example 3, (2R,3S,4S,5S,6R)-6-[4-bromo-2-(trifluoromethyl)phenoxy]-5-fluoro-2-(hydroxymethyl)tetrahydropyran-3,4-diol]	3.2 (1) ° C.	–	–
CNC(=O)c1cccc(-c2ccc(O[C@H]3O[C@H](CO)[C@@H](O)[C@H](F)[C@@H]3O)cc2)c1 [Example 11, 4′-(((2R,3R,4S,5R,6R)-4-fluoro-3,5-dihydroxy-6-(hydroxymethyl)tetrahydro-2H-pyran-2-yl)oxy)-N-methyl-[1,1′-biphenyl]-3-carboxamide]	2.6 (1) ° C.	14000	–
COC(=O)c1cc(C(=O)OC)cc(-c2ccc(O[C@H]3O[C@H](CO)[C@@H](O)[C@H](O)[C@@H]3F)cc2)c1 [Example 9, Dimethyl 5-[4-[(2R,3S,4S,5S,6R)-3-fluoro-4,5-dihydroxy-6-(hydroxymethyl)tetrahydropyran-2-yl]oxyphenyl]benzene-1,3-dicarboxylate]	4.39 ± 0.11 (2) ° C.	–	–
Cc1cc(=O)oc2cc(O[C@H]3O[C@H](CO)[C@@H](O)[C@H](O)[C@@H]3F)ccc12 [Example 10, 7-[(2R,3S,4S,5S,6R)-3-fluoro-4,5-dihydroxy-6-(hydroxymethyl)tetrahydropyran-2-yl]oxy-4-methyl-chromen-2-one]	3.405 ± 0.105 (2) ° C.	–	–
CNC(=O)c1cccc(-c2ccc(O[C@H]3O[C@H](CO)[C@@H](O)[C@H](O)[C@]3(C)O)c(C)c2)c1 [Example 13, N,3′-dimethyl-4′-(((2R,3S,4S,5S,6R)-3,4,5-trihydroxy-6-(hydroxymethyl)-3-methyltetrahydro-2H-pyran-2-yl)oxy)-[1,1′-biphenyl]-3-carboxamide]	10.71 ± 0 (2) ° C.	15 ± 2	–
CNC(=O)c1cccc(-c2ccc(O[C@H]3O[C@H](CO)[C@@H](O)[C@H](O)[C@@H]3F)cc2)c1 [Example 7, 3-[4-[(2R,3S,4S,5S,6R)-3-fluoro-4,5-dihydroxy-6-(hydroxymethyl)tetrahydropyran-2-yl]oxyphenyl]-N-methyl-benzamide]	3.86 ± 0.09 (2) ° C.	8620 ± 1300	–
Cc1cc(-c2cccc([N+](=O)[O-])c2)ccc1O[C@H]1O[C@H](CO)[C@@H](O)[C@H](O)[C@@H]1F [Example 2, (2R,3S,4S,5S,6R)-5-fluoro-2-(hydroxymethyl)-6-((3-methyl-3′-nitro-[1,1′-biphenyl]-4-yl)oxy)tetrahydro-2H-pyran-3,4-diol]	6.01 (1) ° C.	1150 ± 350	–
CNC(=O)c1cccc(-c2ccc(O[C@H]3O[C@H](CO)[C@@H](O)[C@H](O)[C@@H]3F)c(OC)c2)c1 [Example 8, 3-[4-[(2R,3S,4S,5S,6R)-3-fluoro-4,5-dihydroxy-6-(hydroxymethyl)tetrahydropyran-2-yl]oxy-3-methoxy-phenyl]-N-methyl-benzamide]	4 (1) ° C.	5400 ± 200	–
